In brackets after ≈: the same amount, converted by molar mass.
Assay: physchem

Question: What does the source list for `CCCCCCCCCCCCCC(=O)O` [Samarium miristate, samarium miristate]?
Answer: solubility at 24 h (pH 1.2): 90 µg/mL (≈ 394 µM); solubility at 24 h (pH 3): 8 µg/mL (≈ 35 µM); solubility at 24 h (pH 5.2): < 2 µg/mL; solubility at 24 h (pH 7): < 2 µg/mL

Reference: patent EP0587106B1, “Compositions containing lipophilic salts having neutron activable cations” (VECTORPHARMA INTERNATIONAL S.p.A., priority 1992, dated 1994)
